Drawing on patent US10420772B2, “Animal and human anti-trypanosomonal and anti-leishmania agents” (Celgene Corporation, priority 2016, dated 2019), this text covers IC50 for 8 compounds.

Common to all, as to assay type: cell-based
Test [1] deals with IL3000 T. congolense (drug sensitive) strain. The experiment in a line: In vitro Alamar Blue 72 hrs drug sensitivity assay for T. congolense. The conditions noted are these: Trypanosoma congolense, IL3000 T. congolense bloodstream form, read-out: T. congo Act. An outline of the steps: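 Bloodstream-form IL3000 trypanosomes in HMI medium with 20% bovine serum were exposed to compound for 69 hrs at 34° C, 5% CO2. Resazurin was then added for 3 hrs and fluorescence read (ex 536/em 588 nm). IC50 came from 11-point sigmoidal curves over at least three independent runs.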
For orientation: Resazurin is reduced to fluorescent resorufin, in cell work by metabolically active cells.

Test [2] concerns STIB 719/ILRAD 560 T. vivax (drug sensitive) strain. Nature of the test: Ex vivo Alamar Blue 48 hrs drug sensitivity assay for T. vivax. The conditions noted are these: Trypanosoma vivax, STIB719; STIB 719/ILRAD 560 T. vivax bloodstream form, ex vivo, Alamar Blue, 48 hrs; read-out: T. vivax Act. An outline of the steps:
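Bloodstream-form trypanosomes taken from a parasitaemic mouse were exposed to compound for 45 h at 37°C, 5% CO2 in HMI medium with 20% bovine serum. Resazurin added for a further 3 h, fluorescence read at ex 536/em 588 nm. IC50 from 11-point sigmoidal curves, at least three independent runs.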

The subject of test [3] is STIB 806 K T. evansi (drug sensitive) strain. The experiment in a line: In vitro Alamar Blue 72 hrs drug sensitivity assay for T. evansi. The conditions noted are these: STIB 806 K T. evansi bloodstream form, Alamar Blue, 72 hrs; read-out: T. evansi Act. The procedure: In vitro Alamar Blue 72 hrs drug sensitivity assay for T. evansi. Compounds were tested in vitro for chemotherapeutic efficacy against the STIB 806 K T. evansi (drug sensitive) strain, using an Alamar Blue assay. Test compounds were prepared as 10 mg/mL DMSO stocks for each assay run. Compounds were assayed in at least three separate, independent test runs and an 11-point dilution curve was used to determine the IC50 values. Bloodstream form trypanosomes were incubated with test compounds for 69 hrs at 37° C. in a humidified atmosphere containing 5% CO2, supported in HMI media containing 15% horse serum. Thereafter, 10 μL of Resazurin dye (12.5 mg in 100 mL of phosphate buffered saline, Sigma-Aldrich, Buchs, Switzerland) were added for an additional 3 hrs. Plates were then read using a fluorescent plate reader (Spectramax, Gemini XS, Bucher Biotec, Basel, Switzerland) using an excitation wavelength of 536 nm and an emission wavelength of 588 nm. Data points were averaged to generate sigmoidal dose-response curves and IC50 values were determined using Softmax Pro 5.2 software.

With `CC1(Nc2ncc3nc(Nc4cccc(Cl)c4)n([C@H]4CC[C@H](CN)CC4)c3n2)CCOCC1` [A-7, 9-((1r,4r)-4-(aminomethyl)cyclohexyl)-N8-(3-chlorophenyl)-N2-(4-methyltetrahydro-2H-pyran-4-yl)-9H-purine-2,8-diamine], the IC50 in test [1], in test [2] and in test [3] was less than 150 nM each time.
For `CC1(Nc2ncc3nc(Nc4cccc(OC(F)(F)F)c4)n([C@H]4CC[C@@H](CN)CC4)c3n2)CCOCC1` [A-37, 9-((1s,4s)-4-(aminomethyl)cyclohexyl)-N2-(4-methyltetrahydro-2H-pyran-4-yl)-N8-(3-(trifluoromethoxy)phenyl)-9H-purine-2,8-diamine], the IC50 in test [1], in test [2] and in test [3] was less than 150 nM throughout.
On to `CN(C)C[C@H]1CC[C@@H](n2c(Nc3cccc(Cl)c3)nc3cnc(NC4(C)CCOCC4)nc32)CC1` [A-5, N8-(3-chlorophenyl)-9-((1s,4s)-4-((dimethylamino)methyl)cyclohexyl)-N2-(4-methyltetrahydro-2H-pyran-4-yl)-9H-purine-2,8-diamine], for which the IC50 in test [1], in test [2] and in test [3] was less than 150 nM in each case.
On to `CC1(Nc2ncc3nc(Nc4cccc(C(F)(F)F)c4)n([C@H]4CC[C@@H](CN)CC4)c3n2)CCOCC1` [A-28, 9-((1s,4s)-4-(aminomethyl)cyclohexyl)-N2-(4-methyltetrahydro-2H-pyran-4-yl)-N8-(3-(trifluoromethyl)phenyl)-9H-purine-2,8-diamine], for which the IC50 in test [1], in test [2] and in test [3] was less than 150 nM in each case.
For `CC1(Nc2ncc3nc(Nc4cc(Cl)cc(C(F)(F)F)c4)n([C@H]4CC[C@@H](CN)CC4)c3n2)CCOCC1` [A-36, 9-((1s,4s)-4-(aminomethyl)cyclohexyl)-N8-(3-chloro-5-(trifluoromethyl)phenyl)-N2-(4-methyltetrahydro-2H-pyran-4-yl)-9H-purine-2,8-diamine], the results for the IC50 in test [1], in test [2] and in test [3] were less than 150 nM, less than 150 nM and 150 to 350 nM, respectively.
As for `CC1(Nc2ncc3nc(Nc4cccc(Cl)c4)n([C@H]4CC[C@@H](CN5CCCCC5)CC4)c3n2)CCOCC1` [A-40, N8-(3-chlorophenyl)-N2-(4-methyltetrahydro-2H-pyran-4-yl)-9-((1s,4s)-4-(piperidin-1-ylmethyl)cyclohexyl)-9H-purine-2,8-diamine], the IC50 in test [1], in test [2] and in test [3] was less than 150 nM each time.
Regarding `CC(=O)NC[C@H]1CC[C@@H](n2c(Nc3cccc(Cl)c3)nc3cnc(NC4(C)CCOCC4)nc32)CC1` [A-11, N-(((1s,4s)-4-(8-(3-chlorophenylamino)-2-(4-methyltetrahydro-2H-pyran-4-ylamino)-9H-purin-9-yl)cyclohexyl)methyl)acetamide], the IC50 in test [1] was 350 to 500 nM; in test [2], less than 150 nM; in test [3], 350 to 500 nM.
Consider `CC1(Nc2ncc3nc(Nc4cccc(C(F)(F)F)c4F)n([C@H]4CC[C@@H](CN)CC4)c3n2)CCOCC1` [A-46, 9-((1s,4s)-4-(aminomethyl)cyclohexyl)-N8-(2-fluoro-3-(trifluoromethyl)phenyl)-N2-(4-methyltetrahydro-2H-pyran-4-yl)-9H-purine-2,8-diamine], for which the IC50 in test [1], in test [2] and in test [3] was less than 150 nM in each case.
